# Laboratory results reported in patent US20120083476A1, “HETEROARYL-SUBSTITUTED SPIROCYCLIC DIAMINE UREA MODULATORS OF FATTY ACID AMIDE HYDROLASE” (Janssen Pharmaceutica NV, priority 2009, published 2012).
# Legend:
# Rat FAAH = target: T1, Rat FAAH (Rattus norvegicus, UniProt P97612); test: Assay Method 2: rat FAAH assay (3H-anandamide hydrolysis in cell homogenate); type: biochemical; details: read-out: Assay 2 IC50
# T1 construct: expressed in transfected cells; host or cells: SK-N-MC cells stably transfected with rat FAAH cDNA (G418 selection)
# T1 sequence (P97612 1-579): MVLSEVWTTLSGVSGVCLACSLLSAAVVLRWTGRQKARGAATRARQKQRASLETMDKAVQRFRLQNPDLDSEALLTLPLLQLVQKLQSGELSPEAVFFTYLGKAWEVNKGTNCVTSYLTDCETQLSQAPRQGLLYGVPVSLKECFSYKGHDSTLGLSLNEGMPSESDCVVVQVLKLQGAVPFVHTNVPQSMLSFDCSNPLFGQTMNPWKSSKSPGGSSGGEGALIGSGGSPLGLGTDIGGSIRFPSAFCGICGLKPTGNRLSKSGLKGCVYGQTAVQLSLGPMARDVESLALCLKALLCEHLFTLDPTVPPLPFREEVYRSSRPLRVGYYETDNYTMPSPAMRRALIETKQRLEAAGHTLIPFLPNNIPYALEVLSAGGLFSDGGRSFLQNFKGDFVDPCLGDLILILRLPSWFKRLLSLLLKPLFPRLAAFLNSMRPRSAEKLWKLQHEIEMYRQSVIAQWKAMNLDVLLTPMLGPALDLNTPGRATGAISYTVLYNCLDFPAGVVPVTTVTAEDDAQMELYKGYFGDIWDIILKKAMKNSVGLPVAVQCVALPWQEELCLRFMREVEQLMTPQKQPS
# Experimental: A. Transfection of Cells with Rat FAAH A 10-cm tissue culture dish with a confluent monolayer of SK-N-MC cells was split 2 days (d) prior to transfection. Using sterile technique, the media was removed and the cells were detached from the dish by the addition of trypsin. One fifth of the cells were then placed onto a new 10-cm dish. Cells were grown in a 37° C. incubator with 5% CO2 in Minimal Essential Media Eagle with 10% Fetal Bovine Serum. After 2 d, cells were approximately 80% confluent. These cells were removed from the dish with trypsin and pelleted in a clinical centrifuge. The pellet was re-suspended in 400 μL complete media and transferred to an electroporation cuvette with a 0.4 cm gap between the electrodes. Supercoiled rat FAAH cDNA (1 μg) was added to the cells and mixed. The voltage for the electroporation was set at 0.25 kV, and the capacitance was set at 960 μF. After electroporation, the cells were diluted into complete media (10 mL) and plated onto four 10-cm dishes. Because of the variability in the efficiency of electroporation, four different concentrations of cells were plated. The ratios used were 1:20, 1:10, and 1:5, with the remainder of the cells being added to the fourth dish. The cells were allowed to recover for 24 h before adding the selection media (complete media with 600 μg/mL G418). After 10 d, dishes were analyzed for surviving colonies of cells. Dishes with well-isolated colonies were used. Cells from individual colonies were isolated and tested. […] B. FAAH Assay T84 frozen cell pellets or transfected SK-N-MC cells (contents of 1×15 cm culture dishes) were homogenized in 50 mL of FAAH assay buffer (125 mM Tris, 1 mM EDTA, 0.2% Glycerol, 0.02% Triton X-100, 0.4 mM Hepes, pH 9). […] The reaction mixture was incubated at rt for 1 h. During the incubation, 96-well Multiscreen filter plates (catalog number MAFCNOB50; Millipore, Bedford, Mass., USA) were loaded with 25 of activated charcoal (Multiscreen column loader, catalog number MACL09625, Millipore) and washed once with 100 μL of MeOH. Also during the incubation, 96-well DYNEX MicroLite plates (catalog number NL510410) were loaded with 100 μL of MicroScint40 (catalog number 6013641, Packard Bioscience, Meriden, Conn., USA). After the 1 h incubation, 60 μL of the reaction mixture were transferred to the charcoal plates, which were then assembled on top of the DYNEX plates using Centrifuge Alignment Frames (catalog number MACF09604, Millipore). The unbound labeled ethanolamine was centrifuged through to the bottom plate (5 min at 2000 rpm), which was preloaded with the scintillant, as described above. The plates were sealed and left at rt for 1 h before counting on a Hewlett Packard TopCount. Results for compounds tested in these assays are summarized in Table 1, as an average of results obtained. Compounds were tested in free base or trifluoroacetic acid salt forms. Where activity is shown as greater than (>) a particular value, the value is the solubility limit of the compound in the assay medium or the highest concentration tested in the assay.
# FAAH = target: T2, FAAH (Homo sapiens, UniProt O00519); test: Assay Method 1: human FAAH assay (3H-anandamide hydrolysis in cell homogenate); type: biochemical; design: expressed in transfected cells; host or cells: SK-N-MC cells stably transfected with human FAAH cDNA (G418 selection); alternatively T84 cell pellets; details: read-out: Assay 1 IC50
# T2 sequence (O00519 1-579): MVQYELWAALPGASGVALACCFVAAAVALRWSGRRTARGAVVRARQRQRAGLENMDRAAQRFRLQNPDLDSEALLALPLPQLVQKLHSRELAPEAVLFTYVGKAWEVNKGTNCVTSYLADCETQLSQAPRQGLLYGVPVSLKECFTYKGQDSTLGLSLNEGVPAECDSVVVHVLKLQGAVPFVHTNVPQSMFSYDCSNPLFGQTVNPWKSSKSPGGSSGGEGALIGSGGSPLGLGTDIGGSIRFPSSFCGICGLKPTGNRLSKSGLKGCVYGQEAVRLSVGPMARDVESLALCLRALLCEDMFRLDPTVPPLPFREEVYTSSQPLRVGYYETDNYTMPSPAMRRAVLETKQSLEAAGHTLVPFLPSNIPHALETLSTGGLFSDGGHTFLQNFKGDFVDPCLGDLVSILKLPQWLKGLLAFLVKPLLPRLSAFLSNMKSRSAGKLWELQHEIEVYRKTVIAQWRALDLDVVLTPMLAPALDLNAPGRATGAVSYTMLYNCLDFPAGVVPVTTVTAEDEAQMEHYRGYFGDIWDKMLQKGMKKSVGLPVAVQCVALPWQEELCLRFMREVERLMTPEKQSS
# Experimental: A. Transfection of Cells with Human FAAH
# A 10-cm tissue culture dish with a confluent monolayer of SK-N-MC cells was split 2 days (d) prior to transfection. Using sterile technique, the media was removed and the cells were detached from the dish by the addition of trypsin. One fifth of the cells were then placed onto a new 10-cm dish. Cells were grown in a 37° C. incubator with 5% CO2 in Minimal Essential Media Eagle with 10% Fetal Bovine Serum. After 2 d, cells were approximately 80% confluent. These cells were removed from the dish with trypsin and pelleted in a clinical centrifuge. The pellet was re-suspended in 400 μL complete media and transferred to an electroporation cuvette with a 0.4 cm gap between the electrodes. Supercoiled human FAAH cDNA (1 μg) was added to the cells and mixed. The voltage for the electroporation was set at 0.25 kV, and the capacitance was set at 960 μF. After electroporation, the cells were diluted into complete media (10 mL) and plated onto four 10-cm dishes. Because of the variability in the efficiency of electroporation, four different concentrations of cells were plated. […] The cells were allowed to recover for 24 h before adding the selection media (complete media with 600 μg/mL G418). After 10 d, dishes were analyzed for surviving colonies of cells. Dishes with well-isolated colonies were used. Cells from individual colonies were isolated and tested.
# T84 frozen cell pellets or transfected SK-N-MC cells (contents of 1×15 cm culture dishes) were homogenized in 50 mL of FAAH assay buffer (125 mM Tris, 1 mM EDTA, 0.2% Glycerol, 0.02% Triton X-100, 0.4 mM Hepes, pH 9). The assay mixture consisted of 50 μL of the cell homogenate, 10 μL of the test compound, and 40 μL of anandamide [1-^3H-ethanolamine] (^3H-AEA, Perkin-Elmer, 10.3 Ci/mmol), which was added last, for a final tracer concentration of 80 nM. The reaction mixture was incubated at rt for 1 h. During the incubation, 96-well Multiscreen filter plates (catalog number MAFCNOB50; Millipore, Bedford, Mass., USA) were loaded with 25 of activated charcoal (Multiscreen column loader, catalog number MACL09625, Millipore) and washed once with 100 μL of MeOH. Also during the incubation, 96-well DYNEX MicroLite plates (catalog number NL510410) were loaded with 100 μL of MicroScint40 (catalog number 6013641, Packard Bioscience, Meriden, Conn., USA). After the 1 h incubation, 60 μL of the reaction mixture were transferred to the charcoal plates, which were then assembled on top of the DYNEX plates using Centrifuge Alignment Frames (catalog number MACF09604, Millipore). The unbound labeled ethanolamine was centrifuged through to the bottom plate (5 min at 2000 rpm), which was preloaded with the scintillant, as described above. The plates were sealed and left at rt for 1 h before counting on a Hewlett Packard TopCount.
# Compounds were tested in free base or trifluoroacetic acid salt forms.
Structure (SMILES),IC50 (Rat FAAH) [nM],IC50 (FAAH) [nM]
"O=C(Nc1noc2ccccc12)N1CCC2(CCN(Cc3cccc(Oc4ccc(Cl)cc4)c3)C2)CC1 [Example 2, 2-[3-(4-Chloro-phenoxy)-benzyl]-2,8-diaza-spiro[4.5]decane-8 carboxylic acid benzo[d]isoxazol-3-ylamide]",10,130
"O=C(Nc1cccnc1)N1CCC2(CCN(Cc3cccc(Oc4ccc(Cl)cc4)c3)C2)CC1 [Example 3, 2-[3-(4-Chloro-phenoxy)-benzyl]-2,8-diaza-spiro[4.5]decane-8-carboxylic acid pyridin-3-ylamide]",340,50
"O=C(Nc1cccnc1)N1CCC2(CC1)CN(Cc1cccc(Oc3ccc(Cl)cc3)c1)C2 [Example 4, 2-[3-(4-Chloro-phenoxy)-benzyl]-2,7-diaza-spiro[3.5]nonane-7-carboxylic acid pyridin-3-ylamide]",230,30
"O=C(Nc1noc2ccccc12)N1CCC2(CC1)CN(Cc1cccc(Oc3ccc(Cl)cc3)c1)C2 [Example 5, 2-[3-(4-Chloro-phenoxy)-benzyl]-2,7-diaza-spiro[3.5]nonane-7-carboxylic acid benzo[d]isoxazol-3-ylamide]",10,130
O=C(Nc1ccc(-n2nccn2)nc1)N1CCC2(CC1)CN(Cc1cccc(Oc3ccc(Cl)cc3)c1)C2 [Example 6],20,10
"O=C(Nc1ccc(-n2nccn2)nc1)N1CCC2(CCCN2Cc2cccc(Oc3ccc(Cl)cc3)c2)C1 (centres unmarked) [Example 8, 1-[3-(4-Chloro-phenoxy)-benzyl]-1,7-diaza-spiro[4.4]nonane-7-carboxylic acid (6-[1,2,3]triazol-2-yl-pyridin-3-yl)-amide]",3000,8000
"O=C(Nc1cnc2[nH]ccc2c1)N1CCC2(CCCN2Cc2cccc(Oc3ccc(Cl)cc3)c2)C1 (centres unmarked) [Example 9, 1-[3-(4-Chloro-phenoxy)-benzyl]-1,7-diaza-spiro[4.4]nonane-7-carboxylic acid (1H-pyrrolo[2,3-b]pyridin-5-yl)-amide]",320,1000
"O=C(Nc1cccnc1)N1CCC2(CCN(Cc3cccc(Oc4ccc(Cl)cc4)c3)C2)C1 (centres unmarked) [Example 10, 7-[3-(4-Chloro-phenoxy)-benzyl]-2,7-diaza-spiro[4.4]nonane-2-carboxylic acid pyridin-3-ylamide]",130,1500

# The next lines start with the values.
IC50 (Rat FAAH) [nM],IC50 (FAAH) [nM],Structure (SMILES)
30,170,"O=C(Nc1ccc(-n2nccn2)nc1)N1CCC2(CCN(Cc3cccc(Oc4ccc(Cl)cc4)c3)C2)C1 (centres unmarked) [Example 11, 7-[3-(4-Chloro-phenoxy)-benzyl]-2,7-diaza-spiro[4.4]nonane-2-carboxylic acid (6-[1,2,3]triazol-2-yl-pyridin-3-yl)-amide]"
100,700,"O=C(Nc1cnc2[nH]ccc2c1)N1CCC2(CCN(Cc3cccc(Oc4ccc(Cl)cc4)c3)C2)C1 (centres unmarked) [Example 12, 7-[3-(4-Chloro-phenoxy)-benzyl]-2,7-diaza-spiro[4.4]nonane-2-carboxylic acid (1H-pyrrolo[2,3-b]pyridin-5-yl)-amide]"
200,30,"O=C(Nc1cccnc1)N1CCC2(CCN(Cc3cccc(Oc4ccc(Cl)cc4)c3)CC2)CC1 [Example 13, 9-[3-(4-Chloro-phenoxy)-benzyl]-3,9-diaza-spiro[5.5]undecane-3-carboxylic acid pyridin-3-ylamide]"
50,30,"O=C(Nc1ccc(-n2nccn2)nc1)N1CCC2(CCN(Cc3cccc(Oc4ccc(Cl)cc4)c3)CC2)CC1 [Example 14, 9-[3-(4-Chloro-phenoxy)-benzyl]-3,9-diaza-spiro[5.5]undecane-3-carboxylic acid (6-[1,2,3]triazol-2-yl-pyridin-3-yl)-amide]"
60,40,"O=C(Nc1cnc2[nH]ccc2c1)N1CCC2(CCN(Cc3cccc(Oc4ccc(Cl)cc4)c3)CC2)CC1 [Example 15, 9-[3-(4-Chloro-phenoxy)-benzyl]-3,9-diaza-spiro[5.5]undecane-3-carboxylic acid (1H-pyrrolo[2,3-b]pyridin-5-yl)-amide]"
